Reference: ChEMBL document CHEMBL1201862, “PubChem BioAssay data set” (2004)
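Tested at 5 concentrations; 48 h exposure; 96-well plates; endpoints linearly interpolated, else capped at highest concentration. Abbreviation: GI50, concentration required for 50% inhibition of growth.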 Calls of active or inactive are those of the source. Rule as the data show it: active = GI50 up to about 1.1 µM and inactive = higher.

Key:
Assay in all cases: NCI anticancer screen, dose series, 48 h
SN12C = tested on: SN12C
HCT-15 = tested on: HCT-15
A498 = tested on: A498
MDA-MB-231 = tested on: MDA-MB-231
Malme-3M = tested on: Malme-3M
HCC 2998 = tested on: HCC 2998
PC-3 = tested on: PC-3
KM12 = tested on: KM12
SK-MEL-5 = tested on: SK-MEL-5
NCI-H522 = tested on: NCI-H522
T47D = tested on: T47D
SNB-75 = tested on: SNB-75
A549 = tested on: A549
OVCAR-5 = tested on: OVCAR-5
SK-OV-3 = tested on: SK-OV-3
COLO 205 = tested on: COLO 205
HCT-116 = tested on: HCT-116
NCI-H23 = tested on: NCI-H23
SF-539 = tested on: SF-539

SMILES	GI50 (SN12C)	GI50 (HCT-15) [µM]	GI50 (A498)	GI50 (MDA-MB-231)	GI50 (Malme-3M)	GI50 (HCC 2998)	GI50 (PC-3)	GI50 (KM12)	GI50 (SK-MEL-5)	GI50 (NCI-H522)	GI50 (T47D)	GI50 (SNB-75)	GI50 (A549)	GI50 (OVCAR-5)	GI50 (SK-OV-3)	GI50 (COLO 205)	GI50 (HCT-116)	GI50 (NCI-H23)	GI50 (SF-539)
Cc1ccc(S(=O)(=O)N/N=C2\C(=O)Nc3cc(O)c(C(=O)O)cc32)cc1	> 100 µM (inactive)	> 100	> 100 µM (inactive)	> 100 µM (inactive)	> 100 µM (inactive)	> 100 µM (inactive)	> 100 µM (inactive)	> 100 µM (inactive)	> 100 µM (inactive)	> 100 µM (inactive)	> 100 µM (inactive)	> 100 µM (inactive)	> 100 µM (inactive)	> 100 µM (inactive)	> 100 µM (inactive)	> 100 µM (inactive)	> 100 µM (inactive)	> 100 µM (inactive)	–
C1CCNCC1.Oc1ncnc2[nH]cc(CN3CCCCC3)c12	48.8 µM (inactive)	> 100	> 100 µM (inactive)	> 100 µM (inactive)	64.9 µM (inactive)	–	> 100 µM (inactive)	> 100 µM (inactive)	> 100 µM (inactive)	86.3 µM (inactive)	57.9 µM (inactive)	55.5 µM (inactive)	> 100 µM (inactive)	> 100 µM (inactive)	> 100 µM (inactive)	73.3 µM (inactive)	15.7 µM (inactive)	> 100 µM (inactive)	71.4 µM (inactive)
CN(C)Cc1cc(C(=O)O)cc(CN(C)C)c1O	> 100 µM (inactive)	> 100	> 100 µM (inactive)	> 100 µM (inactive)	> 100 µM (inactive)	> 100 µM (inactive)	> 100 µM (inactive)	> 100 µM (inactive)	> 100 µM (inactive)	> 100 µM (inactive)	> 100 µM (inactive)	> 100 µM (inactive)	> 100 µM (inactive)	> 100 µM (inactive)	> 100 µM (inactive)	> 100 µM (inactive)	> 100 µM (inactive)	> 100 µM (inactive)	–
O=C1C2CCN(CC2)C1(CO)CO	17.6 µM (inactive)	16.1	> 51.1 µM (inactive)	20.9 µM (inactive)	18.2 µM (inactive)	–	> 79.1 µM (inactive)	64.7 µM (inactive)	47.4 µM (inactive)	13.1 µM (inactive)	19.5 µM (inactive)	57.7 µM (inactive)	78.3 µM (inactive)	26 µM (inactive)	60.7 µM (inactive)	18.7 µM (inactive)	17 µM (inactive)	25.2 µM (inactive)	40.9 µM (inactive)
C[C@H](NC(=O)C(Cc1ccccc1)(Cc1ccc(O)cn1)NC(=O)c1ccccc1)c1ccccc1 (stereo not given in full)	16.9 µM (inactive)	18	18.1 µM (inactive)	15.6 µM (inactive)	17.5 µM (inactive)	16.5 µM (inactive)	14.2 µM (inactive)	19.8 µM (inactive)	19.4 µM (inactive)	15.5 µM (inactive)	18.5 µM (inactive)	–	14.3 µM (inactive)	21.9 µM (inactive)	–	19.1 µM (inactive)	15.3 µM (inactive)	22 µM (inactive)	19.2 µM (inactive)
Cc1nc(Nc2ccc(F)cc2)c2sc(=S)n(-c3ccc(F)cc3)c2n1	14 µM (inactive)	3.09	16 µM (inactive)	13.9 µM (inactive)	14.6 µM (inactive)	12.2 µM (inactive)	20.1 µM (inactive)	15 µM (inactive)	14.6 µM (inactive)	16.1 µM (inactive)	5.31 µM (inactive)	16.1 µM (inactive)	16 µM (inactive)	17.9 µM (inactive)	19.4 µM (inactive)	14.5 µM (inactive)	3.74 µM (inactive)	4.24 µM (inactive)	–
CC(NC1=NCCO1)c1ccco1 (stereo not given)	> 100 µM (inactive)	> 100	> 100 µM (inactive)	> 100 µM (inactive)	> 100 µM (inactive)	> 100 µM (inactive)	> 100 µM (inactive)	20.3 µM (inactive)	86.9 µM (inactive)	> 100 µM (inactive)	> 100 µM (inactive)	–	> 100 µM (inactive)	> 100 µM (inactive)	> 100 µM (inactive)	79.8 µM (inactive)	> 100 µM (inactive)	> 100 µM (inactive)	> 100 µM (inactive)
CCCCSC1=N/C(=C\c2ccc(N(C)C)cc2)C(NN)=N1	> 100 µM (inactive)	> 100	> 100 µM (inactive)	> 100 µM (inactive)	> 100 µM (inactive)	> 100 µM (inactive)	> 100 µM (inactive)	> 100 µM (inactive)	–	> 100 µM (inactive)	> 100 µM (inactive)	> 100 µM (inactive)	> 100 µM (inactive)	> 100 µM (inactive)	> 100 µM (inactive)	–	> 100 µM (inactive)	> 100 µM (inactive)	–
CCOC(=O)Cc1[nH]c(C(=O)c2ccccc2)cc1C(=O)c1ccccc1	> 100 µM (inactive)	68.7	36.8 µM (inactive)	> 10 µM (inactive)	33.6 µM (inactive)	50.4 µM (inactive)	> 10 µM (inactive)	48.9 µM (inactive)	41.8 µM (inactive)	52.5 µM (inactive)	17.7 µM (inactive)	59.8 µM (inactive)	25.4 µM (inactive)	> 10 µM (inactive)	> 100 µM (inactive)	21.7 µM (inactive)	17.5 µM (inactive)	17.4 µM (inactive)	–
O=C(OCc1ccccc1)N(CCCCN(CCCNC(=O)C(F)(F)F)C(=O)OCc1ccccc1)CCCNC(=O)C(F)(F)F	> 100 µM (inactive)	> 100	> 100 µM (inactive)	> 100 µM (inactive)	–	> 100 µM (inactive)	36.9 µM (inactive)	> 100 µM (inactive)	> 36.8 µM (inactive)	2.94 µM (inactive)	> 100 µM (inactive)	> 100 µM (inactive)	> 66.8 µM (inactive)	> 100 µM (inactive)	> 100 µM (inactive)	> 88.1 µM (inactive)	> 100 µM (inactive)	> 100 µM (inactive)	> 100 µM (inactive)
CCc1[nH]c(=O)nc(N)c1-c1ccc(N2CCCCC2)c([N+](=O)[O-])c1	> 100 µM (inactive)	> 100	> 100 µM (inactive)	98.4 µM (inactive)	–	> 100 µM (inactive)	> 100 µM (inactive)	> 100 µM (inactive)	> 100 µM (inactive)	> 100 µM (inactive)	> 100 µM (inactive)	> 100 µM (inactive)	> 100 µM (inactive)	> 100 µM (inactive)	> 100 µM (inactive)	> 100 µM (inactive)	> 100 µM (inactive)	> 100 µM (inactive)	> 100 µM (inactive)
CCOc1cc(C2CC(c3ccc(NS(=O)(=O)c4cc([N+](=O)[O-])ccc4C)cc3)=NN2)ccc1O (stereo not given)	20 µM (inactive)	20.5	22.3 µM (inactive)	25.5 µM (inactive)	25 µM (inactive)	–	31 µM (inactive)	–	19.2 µM (inactive)	26.9 µM (inactive)	27.9 µM (inactive)	29.8 µM (inactive)	29 µM (inactive)	32.1 µM (inactive)	–	22.3 µM (inactive)	20.4 µM (inactive)	28 µM (inactive)	45.7 µM (inactive)
O=C(O/C=C\OC1CCCC1(c1ccccc1)c1ccccc1)c1ccccc1 (stereo not given)	3.95 µM (inactive)	2.23	23.1 µM (inactive)	2.51 µM (inactive)	–	18.7 µM (inactive)	3.34 µM (inactive)	14.9 µM (inactive)	10.8 µM (inactive)	19 µM (inactive)	1.61 µM (inactive)	3.83 µM (inactive)	21.4 µM (inactive)	16.8 µM (inactive)	16.5 µM (inactive)	15.6 µM (inactive)	2.51 µM (inactive)	2.19 µM (inactive)	3.66 µM (inactive)
CC(=O)Nc1ccc(NS(=O)(=O)c2ccc3nc(C)n(NS(=O)(=O)c4ccc(NC(C)=O)cc4)c(=O)c3c2)cc1	> 100 µM (inactive)	> 100	> 100 µM (inactive)	> 100 µM (inactive)	–	> 100 µM (inactive)	> 100 µM (inactive)	> 100 µM (inactive)	> 100 µM (inactive)	> 60.7 µM (inactive)	> 100 µM (inactive)	> 100 µM (inactive)	> 100 µM (inactive)	> 100 µM (inactive)	> 100 µM (inactive)	> 100 µM (inactive)	> 100 µM (inactive)	> 100 µM (inactive)	> 100 µM (inactive)
NCCCCN(CCCN)C(=O)c1ccccc1	> 100 µM (inactive)	> 100	> 100 µM (inactive)	> 100 µM (inactive)	–	> 100 µM (inactive)	> 100 µM (inactive)	> 100 µM (inactive)	> 100 µM (inactive)	> 100 µM (inactive)	> 100 µM (inactive)	> 100 µM (inactive)	> 100 µM (inactive)	> 100 µM (inactive)	> 100 µM (inactive)	> 100 µM (inactive)	> 100 µM (inactive)	> 100 µM (inactive)	> 100 µM (inactive)
O=C(O)CSc1nc2ccccc2[nH]1	> 100 µM (inactive)	> 100	> 100 µM (inactive)	> 100 µM (inactive)	> 100 µM (inactive)	> 100 µM (inactive)	> 100 µM (inactive)	> 100 µM (inactive)	–	> 100 µM (inactive)	> 100 µM (inactive)	> 100 µM (inactive)	> 100 µM (inactive)	> 100 µM (inactive)	–	–	> 100 µM (inactive)	> 100 µM (inactive)	–
